Values quoted from earlier work in publication PMC4448982, “LP-925219 maximizes urinary glucose excretion in mice by inhibiting both renal SGLT1 and SGLT2” (Pharmacology Research & Perspectives, 2015).
Where two headings read alike, the source gives them in different places.

Experiments:
SGLT2 = tested on: SGLT2; set-up: method as in Rieg et al. [2014]; conditions: ref Rieg et al. [2014], cited from earlier work
[1] = set-up: method as in Powell et al. [2014]; conditions: mouse; ref Powell et al. [2014]; cited from earlier work
[2] = set-up: method as in Powell et al. [2014]; conditions: human; ref Powell et al. [2014]; cited from earlier work

Compound	reduction of glucose reabsorption (SGLT2; SGLT1 KO mice) [%]	reduction of glucose reabsorption (SGLT2; WT mice) [%]	plasma protein binding [1] [%]	plasma protein binding [2] [%]
OC[C@H]1O[C@@H](c2ccc(Cl)c(Cc3ccc(O[C@H]4CCOC4)cc3)c2)[C@H](O)[C@@H](O)[C@@H]1O [empagliflozin]	100	56	–	–
CCOc1ccc(Cc2cc([C@@H]3O[C@H](SC)[C@@H](O)[C@H](O)[C@H]3O)ccc2Cl)cc1 [sotagliflozin]	–	–	> 90	> 90
